Article doi:10.1101/2022.08.09.502705v1 (biorxiv, 2022)

Key:
[1] = molecular target: hSERT (Homo sapiens, UniProt P31645, K490T); assay: cell-based
[2] = molecular target: iFluoxSnFR; assay: isothermal titration calorimetry; type: binding; settings: 3x PBS pH […] °C
[3] = test system: iFluoxSnFR; assay: fluorescence concentration-response of purified biosensor; type: binding; settings: purified protein
[4] = test system: iEscSnFR; assay: as above; type: binding; settings: purified protein
[5] = molecular target: iEscSnFR; assay: isothermal titration calorimetry; type: binding; settings: 3x PBS pH […] °C

Chain of hSERT (P31645 whole entry K490T): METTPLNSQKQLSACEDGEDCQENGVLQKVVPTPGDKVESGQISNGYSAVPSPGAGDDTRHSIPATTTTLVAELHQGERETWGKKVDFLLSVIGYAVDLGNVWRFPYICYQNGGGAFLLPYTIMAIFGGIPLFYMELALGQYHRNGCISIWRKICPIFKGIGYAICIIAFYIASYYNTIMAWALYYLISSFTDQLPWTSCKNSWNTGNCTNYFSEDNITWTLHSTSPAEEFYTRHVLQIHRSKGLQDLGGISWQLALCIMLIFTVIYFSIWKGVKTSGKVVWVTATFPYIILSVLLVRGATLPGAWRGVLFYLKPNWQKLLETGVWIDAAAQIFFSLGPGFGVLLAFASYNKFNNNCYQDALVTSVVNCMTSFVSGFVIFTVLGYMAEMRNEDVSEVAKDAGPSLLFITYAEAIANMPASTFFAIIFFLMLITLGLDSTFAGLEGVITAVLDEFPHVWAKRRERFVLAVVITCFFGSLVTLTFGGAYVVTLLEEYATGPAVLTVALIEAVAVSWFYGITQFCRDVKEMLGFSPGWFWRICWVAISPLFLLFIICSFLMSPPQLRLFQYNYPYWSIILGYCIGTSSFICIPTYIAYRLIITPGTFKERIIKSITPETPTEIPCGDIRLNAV

C[N+](C)(C)CCC(Oc1ccc(C(F)(F)F)cc1)c1ccccc1 (racemic) [N-N-dimethylfluoxetine]
IC50 [1]: 0.6 ± 0.2 µM
Kd [2]: 28.1 ± 3.7 µM
EC50 [3]: 14 ± 0.4 µM

C[N+](C)(C)CCC[C@@]1(c2ccc(F)cc2)OCc2cc(C#N)ccc21 [N-methylescitalopram]
EC50 [4]: 1.8 ± 0.2 µM

C[N+](C)(C)CCO [choline]
EC50 [4]: 140 ± 20 µM

CN(C)CCC[C@@]1(c2ccc(F)cc2)OCc2cc(C#N)ccc21 [escitalopram]
EC50 [4]: 4.5 ± 0.2 µM
Kd [5]: 3.4 ± 0.1 µM

NCCC(Oc1ccc(C(F)(F)F)cc1)c1ccccc1 (centres unmarked) [norfluoxetine]
EC50 [3]: 63 ± 20 µM
